Data: ChEMBL document CHEMBL5143517, “Discovery and radiosensitization research of ursolic acid derivatives as SENP1 inhibitors” (Eur J Med Chem, 2022)
Activity calls are given as the source filed them.

Assays:
HeLa [1] = assay: Radiosensitizing activity against human HeLa cells assessed as quasi-threshold dose at 5 uM pretreated for 24 hrs followed by exposure to 2 to 8 Gy gamma irradiation and measured after 2 weeks by crystal violet staining based analysis (reference value: 1.72 Gy); type: functional
HeLa [2] = assay: Radiosensitizing activity against human HeLa cells assessed as reduction in cell survival fractions at 5 uM pretreated for 24 hrs followed by exposure to 4 to 8 Gy gamma irradiation and measured after 2 weeks by crystal violet staining based analysis; type: functional
HeLa [3] = assay: Radiosensitizing activity against human HeLa cells assessed as average lethal dose at 5 uM pretreated for 24 hrs followed by exposure to 2 to 8 Gy gamma irradiation and measured after 2 weeks by crystal violet staining based analysis (reference value: 1.47 Gy); type: functional
[4] = Cytotoxicity against human HeLa cells assessed as inhibition of cell growth incubated for 72 hrs by CCK-8 assay; type: toxicity, cell-based
[5] = molecular target: T1, Sentrin-specific protease 1 (Homo sapiens, UniProt Q9P0U3); assay: Inhibition of recombinant human SENP1 catalytic domain using RanGAP1 as substrate preincubated for 10 mins followed by substrate addition and measured after 30 mins by Western blot analysis
T1 sequence (Q9P0U3 whole entry): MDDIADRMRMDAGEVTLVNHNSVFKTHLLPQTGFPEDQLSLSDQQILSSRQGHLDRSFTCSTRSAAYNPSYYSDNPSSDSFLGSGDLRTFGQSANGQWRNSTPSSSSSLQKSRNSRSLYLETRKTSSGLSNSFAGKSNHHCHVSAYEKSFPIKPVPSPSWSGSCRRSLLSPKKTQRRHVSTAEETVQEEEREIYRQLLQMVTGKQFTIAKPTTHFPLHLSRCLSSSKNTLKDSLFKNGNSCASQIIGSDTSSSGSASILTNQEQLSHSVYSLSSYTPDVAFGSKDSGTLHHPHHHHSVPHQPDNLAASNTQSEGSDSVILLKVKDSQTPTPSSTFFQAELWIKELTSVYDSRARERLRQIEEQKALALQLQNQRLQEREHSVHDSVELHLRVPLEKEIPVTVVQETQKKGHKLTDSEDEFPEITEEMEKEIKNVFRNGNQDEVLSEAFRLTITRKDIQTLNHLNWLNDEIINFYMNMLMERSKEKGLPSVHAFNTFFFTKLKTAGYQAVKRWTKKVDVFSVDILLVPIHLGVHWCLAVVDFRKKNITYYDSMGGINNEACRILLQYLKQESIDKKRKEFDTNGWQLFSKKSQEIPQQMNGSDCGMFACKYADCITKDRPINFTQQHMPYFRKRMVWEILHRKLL

HeLa [6] = assay: Radiosensitizing activity against human HeLa cells assessed as radiosensitization enhancement ratio at 5 uM pretreated for 24 hrs followed by exposure to 2 to 8 Gy gamma irradiation and measured after 2 weeks by crystal violet staining based analysis (reference value: 1); type: functional

| Compound | IC50 at 72 h [4] | other results |
| --- | --- | --- |
| CNC(=O)CNC(=O)[C@]12CC[C@@H](C)[C@H](C)[C@H]1C1=CC[C@@H]3[C@@]4(C)CC[C@H](O)C(C)(C)[C@@H]4CC[C@@]3(C)[C@]1(C)CC2 | > 20 µM | LD (HeLa [1]): 1.92 Gy; Activity (HeLa [2]): Active; LD (HeLa [3]): 1.02 Gy |
| C[C@H]1[C@H](C)CC[C@]2(C(=O)OCCN3CCNC(=O)C3)CC[C@]3(C)C(=CC[C@@H]4[C@@]5(C)CC[C@H](O)C(C)(C)[C@@H]5CC[C@]43C)[C@H]12 | > 20 µM | – |
| C[C@H]1[C@H](C)CC[C@]2(C(=O)OCCCCN3CCOCC3)CC[C@]3(C)C(=CC[C@@H]4[C@@]5(C)CC[C@H](O)C(C)(C)[C@@H]5CC[C@]43C)[C@H]12 | > 20 µM | – |
| C[C@H]1[C@H](C)CC[C@]2(C(=O)OCC3CCN(C(=O)OC(C)(C)C)CC3)CC[C@]3(C)C(=CC[C@@H]4[C@@]5(C)CC[C@H](O)C(C)(C)[C@@H]5CC[C@]43C)[C@H]12 | > 20 µM | – |
| C[C@H]1[C@H](C)CC[C@]2(C(=O)OCCN3CCN(c4cccc(C(F)(F)F)c4)CC3)CC[C@]3(C)C(=CC[C@@H]4[C@@]5(C)CC[C@H](O)C(C)(C)[C@@H]5CC[C@]43C)[C@H]12 | > 20 µM | – |
| C[C@H]1[C@H](C)CC[C@]2(C(=O)NCC(=O)NCC(O)CO)CC[C@]3(C)C(=CC[C@@H]4[C@@]5(C)CC[C@H](O)C(C)(C)[C@@H]5CC[C@]43C)[C@H]12 (stereo partly specified) | > 20 µM | – |
| C[C@H]1[C@H](C)CC[C@]2(C(=O)OCCN3CCN(C)CC3)CC[C@]3(C)C(=CC[C@@H]4[C@@]5(C)CC[C@H](O)C(C)(C)[C@@H]5CC[C@]43C)[C@H]12 | > 20 µM | – |
| COC(=O)CCNC(=O)[C@]12CC[C@@H](C)[C@H](C)[C@H]1C1=CC[C@@H]3[C@@]4(C)CC[C@H](OC(C)=O)C(C)(C)[C@@H]4CC[C@@]3(C)[C@]1(C)CC2 | > 20 µM | – |
| C[C@H]1[C@H](C)CC[C@]2(C(=O)OCCN3CCCCC3)CC[C@]3(C)C(=CC[C@@H]4[C@@]5(C)CC[C@H](O)C(C)(C)[C@@H]5CC[C@]43C)[C@H]12 | > 20 µM | – |
| C[C@H]1[C@H](C)CC[C@]2(C(=O)OCC(=O)O)CC[C@]3(C)C(=CC[C@@H]4[C@@]5(C)CC[C@H](O)C(C)(C)[C@@H]5CC[C@]43C)[C@H]12 | > 20 µM | LD (HeLa [1]): 2.07 Gy; Activity (HeLa [2]): Active; LD (HeLa [3]): 1.26 Gy |
| C[C@H]1[C@H](C)CC[C@]2(C(=O)N(C)CC(=O)O)CC[C@]3(C)C(=CC[C@@H]4[C@@]5(C)CC[C@H](O)C(C)(C)[C@@H]5CC[C@]43C)[C@H]12 | > 20 µM | – |
| C[C@H]1[C@H](C)CC[C@]2(C(=O)NCC(=O)N(C)CCO)CC[C@]3(C)C(=CC[C@@H]4[C@@]5(C)CC[C@H](O)C(C)(C)[C@@H]5CC[C@]43C)[C@H]12 | > 20 µM | – |
| C[C@H]1[C@H](C)CC[C@]2(C(=O)OCC(=O)NCCO)CC[C@]3(C)C(=CC[C@@H]4[C@@]5(C)CC[C@H](O)C(C)(C)[C@@H]5CC[C@]43C)[C@H]12 | > 20 µM | – |
| CC(=O)O[C@H]1CC[C@]2(C)[C@H]3CC=C4[C@@H]5[C@@H](C)[C@H](C)CC[C@]5(C(=O)NCC(=O)O)CC[C@@]4(C)[C@]3(C)CC[C@H]2C1(C)C | > 20 µM | – |
| COC(=O)[C@]12CC[C@@H](C)[C@H](C)[C@H]1C1=CC[C@@H]3[C@@]4(C)CC[C@H](OC(C)=O)C(C)(C)[C@@H]4CC[C@@]3(C)[C@]1(C)CC2 | > 20 µM | – |
| CNC(=O)COC(=O)[C@]12CC[C@@H](C)[C@H](C)[C@H]1C1=CC[C@@H]3[C@@]4(C)CC[C@H](O)C(C)(C)[C@@H]4CC[C@@]3(C)[C@]1(C)CC2 | > 20 µM | – |
| CC(=O)O[C@H]1CC[C@]2(C)[C@H]3CC=C4[C@@H]5[C@@H](C)[C@H](C)CC[C@]5(C(=O)NCC(N)=O)CC[C@@]4(C)[C@]3(C)CC[C@H]2C1(C)C | > 20 µM | – |
| C[C@H]1[C@H](C)CC[C@]2(C(=O)OCCBr)CC[C@]3(C)C(=CC[C@@H]4[C@@]5(C)CC[C@H](O)C(C)(C)[C@@H]5CC[C@]43C)[C@H]12 | > 20 µM | – |
| C[C@H]1[C@H](C)CC[C@]2(C(=O)NCCC(=O)O)CC[C@]3(C)C(=CC[C@@H]4[C@@]5(C)CC[C@H](O)C(C)(C)[C@@H]5CC[C@]43C)[C@H]12 | > 20 µM | – |
| C[C@H]1[C@H](C)CC[C@]2(C(=O)O)CC[C@]3(C)C(=CC[C@@H]4[C@@]5(C)CC[C@H](O)C(C)(C)[C@@H]5CC[C@]43C)[C@H]12 [URSOLIC ACID] | – | LD (HeLa [1]): 1.77 Gy; Activity (HeLa [2]): Active; LD (HeLa [3]): 1.2 Gy; IC50 [5]: 2.58 µM; Ratio (HeLa [6]): 1.22 |
| C[C@H]1[C@H](C)CC[C@]2(C(N)=O)CC[C@]3(C)C(=CC[C@@H]4[C@@]5(C)CC[C@H](O)C(C)(C)[C@@H]5CC[C@]43C)[C@H]12 | > 20 µM | – |
